Data published in patent US10577363B2, “Substituted piperidine compounds” (EPIZYME, INC., priority 2014, dated 2020).

How the values were obtained:
SMYD3 [1] = target: T1, SMYD3 (Homo sapiens (Human), UniProt Q9H7B4); assay: SMYD3 biochemical assay (SPA, 3H-SAM methylation of MEKK2 protein substrate); conditions: read-out: SMYD3 Biochem IC50
Method in brief: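 Tritium incorporation into GST-MEKK2 is counted by scintillation proximity after citric acid bead capture. Native human SMYD3 is preincubated with test compound for 30 min at room temperature at pH 8.0 (Tris-Cl, TCEP, BSG, Tween 20) before 3H-SAM and substrate are added; cold SAM at 100 uM final stops turnover.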

SMYD3 [2] = target: T1, SMYD3; assay: SMYD3 cell assay (Trimethyl-MEKK2 In-Cell Western in 293T/17 cells); type: cell-based; conditions: read-out: SMYD3 Cell IC50
Method in brief: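 In-Cell Western ratio of trimethyl-Lys260 MEKK2 to anti-flag signal; percent inhibition from DMSO and maximum-inhibition controls, IC50 by non-linear regression, triplicates.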

[3] = Table 1A, IC50 values are an average of n = 1 to n = 50

T1 sequence (Q9H7B4 whole entry): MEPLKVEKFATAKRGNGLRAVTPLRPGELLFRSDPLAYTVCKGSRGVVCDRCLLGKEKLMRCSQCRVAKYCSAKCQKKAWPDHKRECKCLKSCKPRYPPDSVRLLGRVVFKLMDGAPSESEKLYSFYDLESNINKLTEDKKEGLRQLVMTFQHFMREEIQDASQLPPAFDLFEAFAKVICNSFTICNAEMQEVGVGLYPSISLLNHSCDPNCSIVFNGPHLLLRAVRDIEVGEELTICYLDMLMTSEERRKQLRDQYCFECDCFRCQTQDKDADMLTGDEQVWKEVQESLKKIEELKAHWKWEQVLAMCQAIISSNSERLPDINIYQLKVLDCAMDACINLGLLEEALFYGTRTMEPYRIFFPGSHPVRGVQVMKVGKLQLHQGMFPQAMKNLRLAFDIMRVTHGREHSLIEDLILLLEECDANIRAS

| SMILES | IC50 (SMYD3 [1]; [3]) [nM] | IC50 (SMYD3 [2]; [3]) [nM] | IC50 (SMYD3 [1]) [nM] | IC50 (SMYD3 [1]; Table 2A) [nM] | IC50 (SMYD3 [2]; Table 2A) [nM] |
| --- | --- | --- | --- | --- | --- |
| COCCN(C)c1ccc(S(=O)(=O)N2CC[C@H](NC(=O)c3cc(C4CC4)on3)C[C@H]2C)cn1 [compound 504, 5-cyclopropyl-N-((2R,4S)-1-((6-((2-methoxyethyl)(methyl)amino)pyridin-3-yl)sulfonyl)-2-methylpiperidin-4-yl)isoxazole-3-carboxamide] | > 10000 | > 10000 | – | – | – |
| COCCNc1ccc(S(=O)(=O)N2CC[C@@H](NC(=O)c3cc(C4CC4)on3)C[C@@H]2C)cn1 [compound 505, 5-cyclopropyl-N-((2S,4R)-1-((6-((2-methoxyethyl)amino)pyridin-3-yl)sulfonyl)-2-methylpiperidin-4-yl)isoxazole-3-carboxamide] | – | > 10000 | > 10000 | – | – |
| C[C@@H]1C[C@@H](NC(=O)c2cc(C3CC3)on2)CCN1S(=O)(=O)c1ccc(NCCN2CCOCC2)nc1 [compound 506, 5-cyclopropyl-N-((2R,4S)-2-methyl-1-((6-((2-morpholinoethyl)amino)pyridin-3-yl)sulfonyl)piperidin-4-yl)isoxazole-3-carboxamide] | 3970 | > 10000 | – | – | – |
| C[C@H]1C[C@H](NC(=O)c2cc(C3CC3)on2)CCN1S(=O)(=O)c1ccc(NCCN2CCOCC2)nc1 [compound 507, 5-cyclopropyl-N-((2S,4R)-2-methyl-1-((6-((2-morpholinoethyl)amino)pyridin-3-yl)sulfonyl)piperidin-4-yl)isoxazole-3-carboxamide] | 5540 | > 10000 | – | – | – |
| O=C(N[C@H]1C[C@H]2CC[C@@H](C1)N2S(=O)(=O)CC1CCNCC1)c1cc(C2CC2)on1 [compound 526, 5-cyclopropyl-N-((1R,3r,5S)-8-((piperidin-4-ylmethyl)sulfonyl)-8-azabicyclo[3.2.1]octan-3-yl)isoxazole-3-carboxamide] | 1 | 15 | – | – | – |
| O=C(N[C@H]1C[C@H]2CC[C@@H](C1)N2S(=O)(=O)N1CCNCC1)c1cc(C2CC2)on1 [compound 527, 5-cyclopropyl-N-((1R,3r,5S)-8-(piperazin-1-ylsulfonyl)-8-azabicyclo[3.2.1]octan-3-yl)isoxazole-3-carboxamide] | 3 | 32 | – | – | – |
| C[C@H]1C[C@@H](NC(=O)c2cc(C3CC3)on2)CCN1S(=O)(=O)CC1CCN(CCc2ccccc2)CC1 [compound 530, 5-cyclopropyl-N-((2S,4S)-2-methyl-1-(((1-phenethylpiperidin-4-yl)methyl)sulfonyl)piperidin-4-yl)isoxazole-3-carboxamide] | – | – | – | 0.9 | 23.9 |
| O=C(N[C@H]1C[C@H]2CC[C@@H](C1)N2S(=O)(=O)CC1CCN(CCO)CC1)c1cc(C2CC2)on1 [compound 531, 5-cyclopropyl-N-((1R,3r,5S)-8-(((1-(2-hydroxyethyl)piperidin-4-yl)methyl)sulfonyl)-8-azabicyclo[3.2.1]octan-3-yl)isoxazole-3-carboxamide] | – | – | – | 0.9 | 33.1 |
| C[C@H]1C[C@@H](NC(=O)c2cc(C3CC3)on2)CCN1S(=O)(=O)CC1CCN(C)CC1 [compound 533, 5-cyclopropyl-N-((2S,4S)-2-methyl-1-(((1-methylpiperidin-4-yl)methyl)sulfonyl)piperidin-4-yl)isoxazole-3-carboxamide] | – | – | – | 1 | 30.8 |
| O=C(N[C@H]1C[C@H]2CC[C@@H](C1)N2S(=O)(=O)CC1CCN(CCCO)CC1)c1cc(C2CC2)on1 [compound 534, 5-cyclopropyl-N-((1R,3r,5S)-8-(((1-(3-hydroxypropyl)piperidin-4-yl)methyl)sulfonyl)-8-azabicyclo[3.2.1]octan-3-yl)isoxazole-3-carboxamide] | – | – | – | 1.1 | 27.7 |
| CNC1CCN(S(=O)(=O)N2CC[C@H](NC(=O)c3cc(C4CC4)on3)C[C@@H]2C)CC1 [compound 535, 5-cyclopropyl-N-((2S,4S)-2-methyl-1-((4-(methylamino)piperidin-1-yl)sulfonyl)piperidin-4-yl)isoxazole-3-carboxamide] | – | – | – | 1.2 | 21.2 |
| O=C(N[C@H]1C[C@H]2CC[C@@H](C1)N2S(=O)(=O)CC1CCN(Cc2ccccc2)CC1)c1cc(C2CC2)on1 [compound 536, N-((1R,3r,5S)-8-(((1-benzylpiperidin-4-yl)methyl)sulfonyl)-8-azabicyclo[3.2.1]octan-3-yl)-5-cyclopropylisoxazole-3-carboxamide] | – | – | – | 1.2 | 58 |
| C[C@@H]1C[C@H](NC(=O)c2cc(C3CC3)on2)CCN1S(=O)(=O)CC1CCN(CCc2ccccc2)CC1 [compound 537, 5-cyclopropyl-N-((2R,4R)-2-methyl-1-(((1-phenethylpiperidin-4-yl)methyl)sulfonyl)piperidin-4-yl)isoxazole-3-carboxamide] | – | – | – | 1.3 | 72.5 |
| C[C@H]1C[C@@H](NC(=O)c2cc(C3CC3)on2)CCN1S(=O)(=O)CC1CCN(CCO)CC1 [compound 538, 5-cyclopropyl-N-((2S,4S)-1-(((1-(2-hydroxyethyl)piperidin-4-yl)methyl)sulfonyl)-2-methylpiperidin-4-yl)isoxazole-3-carboxamide] | – | – | – | 1.3 | 29.4 |
| COCCCN1CCC(CS(=O)(=O)N2[C@@H]3CC[C@H]2C[C@@H](NC(=O)c2cc(C4CC4)on2)C3)CC1 [compound 542, 5-cyclopropyl-N-((1R,3r,5S)-8-(((1-(3-methoxypropyl)piperidin-4-yl)methyl)sulfonyl)-8-azabicyclo[3.2.1]octan-3-yl)isoxazole-3-carboxamide] | – | – | – | 1.6 | 49.6 |
| C[C@H]1C[C@@H](NC(=O)c2cc(C3CC3)on2)CCN1S(=O)(=O)CC1CCN(Cc2ccccc2)CC1 [compound 544, N-((2S,4S)-1-(((1-benzylpiperidin-4-yl)methyl)sulfonyl)-2-methylpiperidin-4-yl)-5-cyclopropylisoxazole-3-carboxamide] | – | – | – | 1.9 | 44.7 |
| C[C@H]1C[C@@H](NC(=O)c2cc(C3CC3)on2)CCN1S(=O)(=O)N1CCC(N(C)C)CC1 [compound 545, 5-cyclopropyl-N-((2S,4S)-1-((4-(dimethylamino)piperidin-1-yl)sulfonyl)-2-methylpiperidin-4-yl)isoxazole-3-carboxamide] | – | – | – | 2 | 39.9 |
| C[C@H]1C[C@@H](NC(=O)c2cc(C3CC3)on2)CCN1S(=O)(=O)N1CCC(NCc2ccccc2)CC1 [compound 546, N-((2S,4S)-1-((4-(benzylamino)piperidin-1-yl)sulfonyl)-2-methylpiperidin-4-yl)-5-cyclopropylisoxazole-3-carboxamide] | – | – | – | 2.1 | 36 |
| O=C(N[C@H]1C[C@H]2CC[C@@H](C1)N2S(=O)(=O)CC1CCCNC1)c1cc(C2CC2)on1 (stereo partly drawn) [compound 547, 5-cyclopropyl-N-((1R,3r,5S)-8-((piperidin-3-ylmethyl)sulfonyl)-8-azabicyclo[3.2.1]octan-3-yl)isoxazole-3-carboxamide] | – | – | – | 2.3 | 70.4 |
| C[C@H]1C[C@@H](NC(=O)c2cc(C3CC3)on2)CCN1S(=O)(=O)CCCCN [compound 548, N-((2S,4S)-1-((4-aminobutyl)sulfonyl)-2-methylpiperidin-4-yl)-5-cyclopropylisoxazole-3-carboxamide] | – | – | – | 2.4 | 94.1 |
